Reference: patent publication US20120015032A1, “COMBINATION PREPARATION COMPRISING INHIBITOR OF HMG-COA REDUCTASE AND ASPIRIN AND METHOD FOR MANUFACTURING THE SAME” (HANALL PHARMACEUTICAL COMPANY, LTD., priority 2007, published 2012)

Columns and labels:
Assay type in all cases: in vivo, rat
SD rats = assay: Test of antiplatelet aggregation effect (bleeding time) in rats
Procedure: (§1) Animal tests supporting the effects of the present invention were carried out as described in Table 10 below. [table]

rats = assay: Test of comparison of gastric mucosal injury in rats (index of gastric mucosal bleeding); conditions: Table 16
SHR rats = assay: Test of antihypertensive effect in rats; conditions: light, p.o.
Procedure: as §1

[1] = Day 0, simvastatin 5 mg/kg alone
[2] = Day 5, simvastatin 5 mg/kg alone

## CC(=O)Oc1ccccc1C(=O)O [aspirin]
SD rats; rats, bleeding time, summary of Table 12
  platelet aggregation inhibitory effect: increased in proportion to the dose of aspirin
rats
  occurrence of gastrointestinal disturbance: increased in proportion to an increase in the dose of aspirin

## CCC(C)(C)C(=O)O[C@H]1C[C@@H](C)C=C2C=C[C@H](C)[C@H](CC[C@@H]3C[C@@H](O)CC(=O)O3)[C@H]21 [simvastatin]
SHR rats; [1]
  Diastolic blood pressure (DBP): 124.3 ± 15.5
  Mean blood pressure (MBP): 139.0 ± 12.4
  Systolic blood pressure (SBP): 171.0 ± 8.7
SHR rats; [2]
  Diastolic blood pressure (DBP): 125.1 ± 17.1
  Mean blood pressure (MBP): 131.3 ± 12.6
  Systolic blood pressure (SBP): 173.9 ± 9.2
SD rats; SD rats, simvastatin alone, light conditions, p.o., 2 hrs after administration
  Bleeding time: 782 ± 429 s
